Like-named read-outs stand apart in the source and are kept apart here.
Key:
[1] = Plasma EtOH concentrations; format: in vivo, rat
rats [2] = experiment: Elevated-plus maze; format: in vivo, rat
rats [3] = experiment: Pentylenetetrazol; format: in vivo, rat; details: PTZ 42 mg/kg
rats [4] = format: in vivo, rat
[5] = Plasma [EtOH] assay of two-bottle choice; format: in vivo, rat; details: E+D/water-group vs E/water-group, end of the 6th week
GABAARs [6] = format: cell-based, rat; details: for Itonic (pA) / mIPSC amplitude (pA) / mIPSC area (fC) / Decay time / Frequency (HZ) / Rise time: DGCs of naive rats; for Decay time / Frequency (HZ) / Rise time: mIPSCs
GABAARs [7] = format: cell-based, rat
GABAAR α4 subunit [8] = experiment: Western blot of total GABAAR α4 subunit in hippocampus 48 hr after withdrawal; format: in vivo, rat
GABAAR α4 subunit [9] = format: cell-based, rat; details: cultured neurons 24 hrs after EtOH 60 mM + DHM 0.1 μM (E+D)
GABAARs [10] = format: in vivo, rat; details: for Decay time / Frequency (HZ) / Rise time: baseline mIPSCs; for Itonic (pA) / mIPSC amplitude (pA) / mIPSC area (fC): baseline
rats [11] = experiment: Loss of Righting Reflex
[12] = 48 hr after DHM 1 mg/kg i.p. alone (D/W)
[13] = 48 hr withdrawal after EtOH 3 g/kg + DHM 1 mg/kg i.p. (E+D/W)
[14] = DHM 3 μM in presence of EtOH 60 mM
[15] = DHM 1 μM, cultured hippocampal neurons DIV13-14
[16] = D/W: 48 hr after DHM 1 mg/kg gavage
[17] = E+D/W: 48 hr after EtOH 5 g/kg + DHM 1 mg/kg gavage
[18] = DHM 0.3, 0.5, 1, 10 mg/kg co-injected i.p. with EtOH 3 g/kg

O=C1c2c(O)cc(O)cc2O[C@H](c2cc(O)c(O)c(O)c2)[C@H]1O [DHM, (2R,3R)-3,5,7-trihydroxy-2-(3,4,5-trihydroxyphenyl)-2,3-dihydrochromen-4-one]
Effect on plasma [EtOH] ([1]; DHM 10 mg/kg with EtOH 3 g/kg, significant at 30 min, not at 60 min): slightly decreased [EtOH] | Rise time of plasma [EtOH] ([1]; DHM 1, 10 mg/kg with EtOH 3 g/kg): the rise time of plasma [EtOH] was slowed at early time | Time in open and closed arms (EPM) (rats [2]; [12]): did not affect the time rats spent in either arm | Time in open and closed arms (EPM) (rats [2]; 48 hr withdrawal after EtOH 3 g/kg + DHM 1 mg/kg i.p. (E+D/W), vs V/W-group): spent similar times | PTZ-induced seizure duration (rats [3]; [12]): 0.6 ± 0.4 min | PTZ-induced seizure duration (rats [3]; [13]): 1.7 ± 0.8 min | Preference to bottle containing E+D (rats [4]; E+D/water-group, 3rd vs 7th week): did not change this preference | EtOH intake (rats [4]; EtOH+DHM 0.05 mg/ml/water (E+D/water-group), beginning of the 4th week): 2.6 ± 0.5 g/kg/day | Total fluid consumption (rats [4]; between the 4 groups (E/water, E+D/water, D/water, water/water)): no significant differences in total fluid consumption | Body weight (rats [4]; between the 4 groups at the end of the experiments): no significant difference in body weight | Plasma [EtOH] [5]: significantly lower | Itonic (pA) (GABAARs [6]; DHM 0.1 μM): 27.6 ± 1.4 pA | mIPSC amplitude (pA) (GABAARs [6]; DHM 0.1 μM): 30.9 ± 2.9 pA | mIPSC area (fC) (GABAARs [6]; DHM 0.1 μM): 637.1 ± 19.8 fC | Decay time (GABAARs [6]; DHM 0.1 μM): 7.5 ± 0.5 ms | Frequency (HZ) (GABAARs [6]; DHM 0.1 μM): 14.0 ± 0.6 HZ | Rise time (GABAARs [6]; DHM 0.1 μM): 2.0 ± 0.2 ms | Itonic (pA) (GABAARs [6]; DHM 1 μM): 44.0 ± 4.1 pA | mIPSC amplitude (pA) (GABAARs [6]; DHM 1 μM): 32.7 ± 2.6 pA | mIPSC area (fC) (GABAARs [6]; DHM 1 μM): 715.7 ± 26.2 fC | Decay time (GABAARs [6]; DHM 1 μM): 8.6 ± 0.5 ms | Frequency (HZ) (GABAARs [6]; DHM 1 μM): 15.0 ± 0.6 HZ | Rise time (GABAARs [6]; DHM 1 μM): 2.1 ± 0.2 ms | EtOH-potentiated Itonic (GABAARs [6]; [14]): 21.0 ± 0.9 pA | EtOH-potentiated mIPSCs (area) (GABAARs [6]; [14]): 0.70 ± 0.02 nC | Itonic (pA) (GABAARs [6]; DHM 10 μM): 53.8 ± 2.9 pA | mIPSC amplitude (pA) (GABAARs [6]; DHM 10 μM): 36.1 ± 2.4 pA | mIPSC area (fC) (GABAARs [6]; DHM 10 μM): 965.7 ± 30.9 fC | Decay time (GABAARs [6]; DHM 10 μM): 9.6 ± 0.8 ms | Frequency (HZ) (GABAARs [6]; DHM 10 μM): 15.9 ± 1.0 HZ | Rise time (GABAARs [6]; DHM 10 μM): 2.4 ± 0.3 ms | Itonic (pA) (GABAARs [6]; DHM 30 μM): 54.0 ± 3.4 pA | mIPSC amplitude (pA) (GABAARs [6]; DHM 30 μM): 35.8 ± 3.0 pA | mIPSC area (fC) (GABAARs [6]; DHM 30 μM): 956.7 ± 22.6 fC | Decay time (GABAARs [6]; DHM 30 μM): 10.1 ± 0.8 ms | Frequency (HZ) (GABAARs [6]; DHM 30 μM): 16.1 ± 1.7 HZ | Rise time (GABAARs [6]; DHM 30 μM): 2.4 ± 0.2 ms | Effect on EtOH (60 mM) potentiation of Itonic and mIPSCs (GABAARs [6]; DHM 0.3 and 1.0 μM): concentration-dependently antagonized | Itonic potentiation (GABAARs [7]; [15]): 194.9 ± 13.6 % of baseline | mIPSC area potentiation (GABAARs [7]; [15]): 181.8 ± 9.2 % of baseline | Effect on GABA concentration-response curve of GABAAR-currents (GABAARs [7]; DHM 0.3 and 1 μM co-applied with GABA, TTX present, DIV14): produced a left shift of the GABA concentration-response curve | Effect on total α4 subunit level (GABAAR α4 subunit [8]; hippocampus 48 hr after DHM 1 mg/kg i.p. alone (D/W)): had no effect on α4 subunit level | Total α4 protein level (GABAAR α4 subunit [8]; hippocampus 48 hr after EtOH 3 g/kg + DHM 1 mg/kg i.p. (E+D/W)): 93.0 ± 21.0 % of control | Effect on EtOH-induced increase in surface GABAAR α4 (GABAAR α4 subunit [9]): prevented this increase | Decay time (GABAARs [10]; [16]): 7.9 ± 1.2 ms | Frequency (HZ) (GABAARs [10]; [16]): 13.2 ± 1.3 HZ | Rise time (GABAARs [10]; [16]): 2.2 ± 0.3 ms | Decay time (GABAARs [10]; [17]): 7.1 ± 0.6 ms | Frequency (HZ) (GABAARs [10]; [17]): 12.4 ± 0.5 HZ | Rise time (GABAARs [10]; [17]): 1.8 ± 0.3 ms | Itonic (pA) (GABAARs [10]; [16]): 24.3 ± 2.9 pA | mIPSC amplitude (pA) (GABAARs [10]; [16]): 28.5 ± 3.0 pA | mIPSC area (fC) (GABAARs [10]; [16]): 621.5 ± 68.5 fC | Itonic (pA) (GABAARs [10]; [17]): 30.0 ± 2.8 pA | mIPSC amplitude (pA) (GABAARs [10]; [17]): 26.2 ± 2.1 pA | mIPSC area (fC) (GABAARs [10]; [17]): 666.8 ± 34.1 fC | mIPSC modulation by acute EtOH (GABAARs [10]; bath EtOH 60 mM, DGCs of E+D/W-group rats): mIPSC modulation was unchanged | Acute EtOH-induced LORR (tolerance) (rats [11]; 48 hr withdrawal after DHM 1 mg/kg i.p. alone (D/W)): 65.6 ± 8.4 min | Acute EtOH-induced LORR (tolerance) (rats [11]; [13]): 61.0 ± 3.8 min | LORR duration (rats [11]; DHM 1 mg/kg 30 min prior to EtOH injection (D1+E)): 8.2 ± 4.1 min | LORR duration (rats [11]; DHM 1 mg/kg co-injected i.p. with EtOH 4 g/kg (E4+D1)): 28.2 ± 4.0 min | LORR induction (rats [11]; DHM 1 mg/kg i.p. alone (D1)): did not induce LORR | LORR duration (rats [11]; DHM 3 mg/kg co-injected with EtOH 3 g/kg (E3+D3)): 2.7 ± 1.7 min | LORR duration (rats [11]; DHM 100 mg/kg i.p. alone (D100)): 2.9 ± 1.3 min | Effect on duration of EtOH-induced LORR (rats [11]; [18]): dose-dependently reduced LORR | Effect on onset of EtOH-induced LORR (rats [11]; [18]): dose-dependently increased LORR onset | LORR duration (rats [11]; DHM 300 mg/kg i.p. alone (D300)): 9.8 ± 4.3 min | Remaining LORR after the 30 min time point (rats [11]; DHM injected 30 min after EtOH): 19 ± 1.0 min
